Consider one compound from patent EP1721614A1, “Epirubicine hydrochloride for treating hepatitis C virus” (Institut National de la Santé et de la Recherche Médicale …, priority 2005, dated 2006).

For data set [1] the following is noted: cited from earlier work.
A further data set can be described thus: in vitro. Conditions: human, huh7 cells.
Data set [2] relates to HCV subgenomic replicon stably transfected into Huh7 cell lines (clone BM4.5). Description: anti-HCV activity in HCV subgenomic replicon system (Northern blot of HCV RNA, normalised to actin). In kind it is cell-based, hepatitis C virus (HCV). The protocol: The potential antiviral (anti HCV) activity of epirubicin hydrochloride was tested in in vitro cell culture model using the HCV subgenomic replicon stably transfected into Huh7 cell lines (clone BM4.5) (Ju-Tao Gao et al., J Virol. 2001).
Huh7 cells containing the HCV replicon were grown in cell culture medium in presence of varying concentration of epirubicin. The media and drug were changed everyday for 5 days. After 5 days of treatment the cells were lysed and total RNA extracted. The isolated RNA was then assayed for presence of HCV replication by Northern Blot analysis, using a HCV probe targeting the NS5B region of HCV.
The cell lines were treated everyday with epirubicin from concentration of 20 nM to 2 nM for 5 days and at the end of treatment RNA from the treated cells were isolated. The total RNA was then probed with a HCV specific probe using Northern blot analysis to detect the HCV RNA. The resulting blot was then exposed to phosphorimager densitometry and the viral replication quantified.
(In antiviral work, replicon cells carry a viral genome segment that copies itself.)

Counter-ions that a name gives are not always drawn. Where only a bound is given, the exact number is not on record here.

As a reminder, the CC50 is the concentration giving 50% cytotoxicity. Turning to `COc1cccc2c1C(=O)c1c(O)c3c(c(O)c1C2=O)C[C@@](O)(C(=O)CO)C[C@@H]3O[C@H]1C[C@H](N)[C@@H](O)[C@H](C)O1` [epirubicin hydrochloride, 7-O-(3'-amino-2',3',6'-trideoxy-α,β-L-arabinohexpyranosyl)-adriamycinone hydro-chloride], in data set [1] (antitumor therapy in man), the maximum cumulative dose is 900 - 1000 mg/m^2. Further, the “"safe" dose (total cumulative dose, Kaplan-Meier plot of cumulative probability of developing congestive heart failure)” value in data set [1] (man) is on record as 100 - 150 mg/m^2. The CC50 in “in vitro” was > 100 nM. Besides, in data set [2] (CC50 in Huh7 cells versus IC50 in HCV replicon system), the selectivity index worked out at 25. In addition, the IC50 in data set [2] (Hepatitis C virus, Huh-7, 120 h, Huh7 replicon cells, 5 days of treatment, Figure 2, read-out: 50% inhibitory concentration (IC50), anti-HCV activity measured in HCV replicon system) was 3 to 5 nM.
